# Reference: paper PMC9058255 (RSC Advances, 2020)
# Like-named read-outs stand apart in the source and are kept apart here.
# Columns and labels:
# MERS-S pseudovirus = experiment: organism not typed; assay type: cell-based, MERS-CoV; details: for IC50: read-out: IC50: 50% inhibitory concentration
# in vitro = details: human
Compound,"IC50 (MERS-S pseudovirus; Huh-7, 48 h) [µM]",CC50 (in vitro) [µM],also measured
"COc1cccc(/C=N/c2ccc(-c3nc4ccccc4s3)cc2)c1O [Compound 1a, (E)-2-(((4-(Benzo[d]thiazol-2-yl)phenyl)imino)methyl)-6-methoxyphenol]",,,inhibitory activity against MERS-S pseudovirus (in words) (MERS-S pseudovirus): modest entry inhibitor; IC50 (MERS-S pseudovirus): 0.73 ± 0.66 µM
"COc1cccc(/C=N/c2ccc(-c3nc4ccccc4o3)cc2)c1O [Compound 1b, (E)-2-(((4-(Benzo[d]oxazol-2-yl)phenyl)imino)methyl)-6-methoxyphenol]",> 10,,inhibitory activity against MERS-S pseudovirus (in words) (MERS-S pseudovirus): lost inhibitory activity
"COc1cccc(/C=N/c2ccc(-c3nc4ccccc4[nH]3)cc2)c1O [Compound 1c, (E)-2-(((4-(1H-Benzo[d]imidazol-2-yl)phenyl)imino)methyl)-6-methoxyphenol]",> 10,,inhibitory activity against MERS-S pseudovirus (in words) (MERS-S pseudovirus): lost inhibitory activity
"COc1cccc(/C=N/c2ccc(-c3nc4ccccc4s3)nc2)c1O [Compound 1d, (E)-2-(((6-(Benzo[d]thiazol-2-yl)pyridin-3-yl)imino)methyl)-6-methoxyphenol]",2.7 ± 0.19,,inhibitory activity against MERS-S pseudovirus (in words) (MERS-S pseudovirus): Modest inhibitory activity
"COc1cccc(/C=N/c2nc3ccccc3s2)c1O [Compound 1e, (E)-2-((benzo[d]thiazol-2-ylimino)methyl)-6-methoxyphenol]",> 10,,inhibitory activity against MERS-S pseudovirus (in words) (MERS-S pseudovirus): lost inhibitory activity
"COc1cccc(CNc2ccc(-c3nc4ccccc4s3)cc2)c1O [Compound 1f, 2-(((4-(benzo[d]thiazol-2-yl)phenyl)amino)methyl)-6-methoxy-phenol]",> 10,,inhibitory activity against MERS-S pseudovirus (in words) (MERS-S pseudovirus): inhibitory activity was markedly reduced
"COc1cccc(C(=O)Nc2ccc(-c3nc4ccccc4s3)cc2)c1O [Compound 1g, N-(4-(benzo[d]thiazol-2-yl)phenyl)-2-hydroxy-3-methoxybenzamide]",> 10,,inhibitory activity against MERS-S pseudovirus (in words) (MERS-S pseudovirus): inhibitory activity was markedly reduced
"C(=N\c1ccc(-c2nc3ccccc3s2)cc1)/c1ccccc1 [Compound 1h, (E)-N-(4-(Benzo[d]thiazol-2-yl)phenyl)-1-phenylmethanimine]",0.57 ± 0.11,> 100,
"Oc1ccccc1/C=N/c1ccc(-c2nc3ccccc3s2)cc1 [Compound 1i, (E)-2-(((4-(Benzo[d]thiazol-2-yl)phenyl)imino)methyl)phenol]",0.52 ± 0.03,> 100,
"Oc1cccc(/C=N/c2ccc(-c3nc4ccccc4s3)cc2)c1O [Compound 1k, (E)-3-(((4-(Benzo[d]thiazol-2-yl)phenyl)imino)methyl)benzene-1,2-diol]",0.4 ± 0.01,> 100,
"COc1ccc(/C=N/c2ccc(-c3nc4ccccc4s3)cc2)cc1O [Compound 1l, (E)-5-(((4-(Benzo[d]thiazol-2-yl)phenyl)imino)methyl)-2-methoxyphenol]",0.22 ± 0.03,> 100,
"C(=N\c1ccc(-c2nc3ccccc3s2)cc1)/c1cccnc1 [Compound 1m, (E)-N-(4-(Benzo[d]thiazol-2-yl)phenyl)-1-(pyridin-3-yl)methanimine]",0.34 ± 0.24,> 100,
"C(=N\c1ccc(-c2nc3ccccc3s2)cc1)/c1ccoc1 [Compound 1n, (E)-N-(4-(Benzo[d]thiazol-2-yl)phenyl)-1-(furan-3-yl)methanimine]",> 10,> 100,
"C(=N\c1ccc(-c2nc3ccccc3s2)cc1)/c1ccsc1 [Compound 1o, (E)-N-(4-(Benzo[d]thiazol-2-yl)phenyl)-1-(thiophen-3-yl)methanimine]",0.14 ± 0.06,> 100,
"C(=N\c1ccc(-c2nc3ccccc3s2)cc1)/c1cc[nH]c1 [Compound 1p, (E)-N-(4-(Benzo[d]thiazol-2-yl)phenyl)-1-(1H-pyrrol-3-yl)methanimine]",> 10,> 100,
"C(=N\c1ccc(-c2nc3ccccc3s2)cc1)/c1cccs1 [Compound 1q, (E)-N-(4-(Benzo[d]thiazol-2-yl)phenyl)-1-(thiophen-2-yl)methanimine]",6.52 ± 1.14,> 100,inhibitory activity against MERS-S pseudovirus (in words) (MERS-S pseudovirus): modest inhibitory capacity
"O=[N+]([O-])c1cc(/C=N/c2ccc(-c3nc4ccccc4s3)cc2)cs1 [Compound 1r, (E)-N-(4-(Benzo[d]thiazol-2-yl)phenyl)-1-(5-nitrothiophen-3-yl)methanimine]",0.62 ± 0.31,> 100,
"C(=N\c1ccc(-c2nc3ccccc3s2)cc1)/c1cscn1 [Compound 1s, (E)-N-(4-(Benzo[d]thiazol-2-yl)phenyl)-1-(thiazol-4-yl)methanimine]",> 10,> 100,
"C(=N\c1ccc(-c2nc3ccccc3s2)cc1)/c1cncs1 [Compound 1t, (E)-N-(4-(Benzo[d]thiazol-2-yl)phenyl)-1-(thiazol-5-yl)methanimine]",8.8 ± 0.01,> 100,

Compound,"IC50 (MERS-S pseudovirus; Huh-7, 48 h) [µM]",CC50 (in vitro) [µM],also measured
"C(=N\c1ccc(-c2nc3ccccc3s2)cc1)/c1nccs1 [Compound 1u, (E)-N-(4-(Benzo[d]thiazol-2-yl)phenyl)-1-(thiazol-2-yl)methanimine]",> 10,> 100,
"C(=N\c1ccc(-c2nc3ncccc3s2)cc1)/c1ccsc1 [Compound 4a, (E)-N-(4-(Thiazolo[4,5-b]pyridin-2-yl)phenyl)-1-(thiophen-3-yl)methanimine]",> 10,,
"C(=N\c1ccc(-c2nc3c(s2)CCCC3)cc1)/c1ccsc1 [Compound 4b, (E)-N-(4-(4,5,6,7-Tetrahydrobenzo[d]thiazol-2-yl)phenyl)-1-(thiophen-3-yl) methanimine]",> 10,,
"C(=N\c1ccc(-c2cn3c(n2)sc2ccccc23)cc1)/c1ccsc1 [Compound 4c, (E)-N-(4-(Benzo[d]imidazo[2,1-b]thiazol-2-yl)phenyl)-1-(thiophen-3-yl) methanimine]",> 10,,
"C(=N\c1ccc(-c2cn3ccccc3n2)cc1)/c1ccsc1 [Compound 4d, (E)-N-(4-(Imidazo[1,2-a]pyridin-2-yl)phenyl)-1-(thiophen-3-yl)methanimine]",> 10,,
"Fc1cccc2nc(-c3ccc(/N=C/c4ccsc4)cc3)sc12 [Compound 4e, (E)-N-(4-(7-Fluorobenzo[d]thiazol-2-yl)phenyl)-1-(thiophen-3-yl)methanimine]",1.67 ± 0.3,,
"Fc1ccc2nc(-c3ccc(/N=C/c4ccsc4)cc3)sc2c1 [Compound 4f, (E)-N-(4-(6-Fluorobenzo[d]thiazol-2-yl)phenyl)-1-(thiophen-3-yl)methanimine]",0.09 ± 0.01,,
"Fc1ccc2sc(-c3ccc(/N=C/c4ccsc4)cc3)nc2c1 [Compound 4g, (E)-N-(4-(5-Fluorobenzo[d]thiazol-2-yl)phenyl)-1-(thiophen-3-yl)methanimine]",1 ± 0.07,,
"Fc1cccc2sc(-c3ccc(/N=C/c4ccsc4)cc3)nc12 [Compound 4h, (E)-N-(4-(4-Fluorobenzo[d]thiazol-2-yl)phenyl)-1-(thiophen-3-yl)methanimine]",0.53 ± 0.02,,
"CCOc1ccc2nc(-c3ccc(/N=C/c4ccsc4)cc3)sc2c1 [Compound 4i, (E)-N-(4-(6-Ethoxybenzo[d]thiazol-2-yl)phenyl)-1-(thiophen-3-yl)methanimine]",> 10,,
"Cc1ccc2nc(-c3ccc(/N=C/c4ccsc4)cc3)sc2c1 [Compound 4j, (E)-N-(4-(6-Methylbenzo[d]thiazol-2-yl)phenyl)-1-(thiophen-3-yl)methanimine]",> 10,,
"CNc1ccc2nc(-c3ccc(/N=C/c4ccsc4)cc3)sc2c1 [Compound 4k, (E)-N-Methyl-2-(4-((thiophen-3-ylmethylene)amino)phenyl)benzo[d]thiazol-6-amine]",> 10,,
"CN(C)c1ccc2nc(-c3ccc(/N=C/c4ccsc4)cc3)sc2c1 [Compound 4l, (E)-N,N-Dimethyl-2-(4-((thiophen-3-ylmethylene)amino)phenyl)benzo[d]thiazol-6-amine]",> 10,,
"O=C(O)c1ccc2nc(-c3ccc(/N=C/c4ccsc4)cc3)sc2c1 [Compound 4m, (E)-2-(4-((Thiophen-3-ylmethylene)amino)phenyl)benzo[d]thiazole-6-carboxylic acid]",> 10,,
"CNC(=O)c1ccc2nc(-c3ccc(/N=C/c4ccsc4)cc3)sc2c1 [Compound 4n, (E)-N-Methyl-2-(4-((thiophen-3-ylmethylene)amino)phenyl)benzo[d]thiazole-6-carboxamide]",> 10,,
"C(=N\c1ccc(Oc2nc3ccccc3s2)cc1)/c1ccsc1 [Compound 4o, (E)-N-(4-(Benzo[d]thiazol-2-yloxy)phenyl)-1-(thiophen-3-yl)methanimine]",> 10,,inhibitory activity against MERS-S pseudovirus (in words) (MERS-S pseudovirus): inhibitory activity was abolished
"C(=N\c1ccc(Sc2nc3ccccc3s2)cc1)/c1ccsc1 [Compound 4p, (E)-N-(4-(Benzo[d]thiazol-2-ylthio)phenyl)-1-(thiophen-3-yl)methanimine]",> 10,,inhibitory activity against MERS-S pseudovirus (in words) (MERS-S pseudovirus): inhibitory activity was abolished
(E)-N-(4-(Benzo[d]thiazol-2-yl)phenyl)-1-(3-methoxyphenyl)methanimine [Compound 1j],,,CC50 (Huh-7 cells): > 100 µM; IC50 (MERS-S pseudovirus): 0.2 ± 0.05 µM
